Measurements from patent publication US10124004B2, “Pyrido[3,4-d]pyrimidine derivative and pharmaceutically acceptable salt thereof” (Teijin Pharma Limited, priority 2015, dated 2018).
Read-outs that look alike come from different tables or passages of the source.

Experiments:
CDK4/cyclin D3 = target: T1, CDK4/cyclin D3 (Homo sapiens, UniProt P11802); experiment: Human CDK4/cyclin D3 inhibitory activity (QS S Assist CDK4/Cyclin D3_FP Kit, IMAP fluorescence polarization); type: biochemical
T1 construct: purchased Carna Biosciences, Inc. QS S Assist CDK4/Cyclin D3_FP Kit
T1 sequence (P11802 whole entry): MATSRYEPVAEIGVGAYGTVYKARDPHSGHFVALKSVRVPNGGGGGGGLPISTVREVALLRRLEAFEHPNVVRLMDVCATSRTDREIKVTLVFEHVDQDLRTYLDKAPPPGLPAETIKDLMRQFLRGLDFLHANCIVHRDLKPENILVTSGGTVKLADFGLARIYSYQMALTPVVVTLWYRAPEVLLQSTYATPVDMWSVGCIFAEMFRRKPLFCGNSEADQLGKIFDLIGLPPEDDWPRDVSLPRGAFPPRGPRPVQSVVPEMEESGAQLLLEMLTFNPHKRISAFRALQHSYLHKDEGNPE
T1 sequence (P30281 whole entry partner): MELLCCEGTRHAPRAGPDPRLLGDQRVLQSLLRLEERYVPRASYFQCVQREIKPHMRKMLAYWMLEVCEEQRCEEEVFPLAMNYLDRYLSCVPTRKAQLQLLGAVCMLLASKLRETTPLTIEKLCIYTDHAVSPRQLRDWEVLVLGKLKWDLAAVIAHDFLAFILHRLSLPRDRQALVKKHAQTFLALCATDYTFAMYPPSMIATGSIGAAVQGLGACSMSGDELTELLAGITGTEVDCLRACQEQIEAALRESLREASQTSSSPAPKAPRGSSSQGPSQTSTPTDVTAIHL
Summary of the method: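 Percent inhibition, relative to DMSO with and without enzyme, was curve-fitted to give IC50 from polarization (ex 485, em 535 nm). The 45-min room-temperature reaction used 12.5-25 ng/well enzyme, kit ATP/substrate/metal mix, and HEPES pH 7.4 buffer with Tween20 and DTT, followed by 30-min IMAP binding in the dark.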

CDK2/cyclin A2 = target: T2, CDK2/cyclin A2 (Homo sapiens, UniProt P24941); experiment: Human CDK2/cyclin A2 inhibitory activity (QS S Assist CDK2/Cyclin A2_FP Kit, IMAP fluorescence polarization); type: biochemical
T2 construct: purchased Carna Biosciences, Inc. QS S Assist CDK2/Cyclin A2_FP Kit
Summary of the method: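 Kinase activity read as fluorescence polarization (485/535 nm) after phosphorylated fluorescent substrate binds IMAP reagent (30 min, RT, dark). Enzyme (2.5 ng/well) reacted 60 min at RT with ATP/substrate/metal in HEPES pH 7.4 buffer with Tween 20 and DTT; no-enzyme wells define 0% activity; IC50 by curve fit.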

[1] = 50% inhibitory concentration against CDK4/cyclin D3, given as class symbol
[2] = 50% inhibitory concentration against CDK2/cyclin A2, given as class symbol
[3] = Human CDK4/cyclin D3 inhibitory activity, read-out: CDK4 Activity symbol
[4] = Human CDK2/cyclin A2 inhibitory activity, read-out: CDK2 Activity symbol

SMILES | IC50 (CDK4/cyclin D3; [1]) [nM] | IC50 (CDK2/cyclin A2; [2]) [nM] | IC50 (CDK4/cyclin D3; [3]) [nM] | IC50 (CDK2/cyclin A2; [4]) [nM]
CC(C)Nc1nc([C@@H](C)O)cc2cnc(Nc3ccc(C4CCN(CC(=O)O)CC4)cn3)nc12 [Compound 829] | < 10 | ≥ 100 |  | 
CC(C)Nc1nc([C@@H](C)O)cc2cnc(Nc3ccc(Cn4cncn4)cn3)nc12 [Compound 949] | < 10 | ≥ 100 |  | 
C[C@@H](O)c1nc(NC2CCOCC2)c2nc(Nc3ccc(CN4CCNCC4)cn3)ncc2c1Cl [Compound 326] |  |  | < 10 | ≥ 100
CC(=O)c1cc2cnc(Nc3ccc(N4CCNCC4=O)cn3)nc2c(NC(C)C)n1 [Compound 743] | < 10 | ≥ 100 |  | 
Cc1cc(Nc2ncc3cc([C@@H](C)O)nc(NC(C)C)c3n2)ncc1N1CCNCC1=O [Compound 780] | 10 to 100 | ≥ 100 |  | 
CNCCOc1ccc(Nc2ncc3cc([C@@H](C)O)nc(NC(C)C)c3n2)nc1 [Compound 529] |  |  | < 10 | ≥ 100
C[C@@H](O)c1cc2cnc(Nc3ccc(CN4CCNCC4)cn3)nc2c(NC2(C(=O)O)CCCC2)n1 [Compound 325] |  |  | 10 to 100 | ≥ 100
CCC(=O)c1cc2cnc(Nc3ccc(N4CCNCC4=O)cn3)nc2c(NC(C)C)n1 [Compound 1030] | 10 to 100 | ≥ 100 |  | 
CO[C@H](C)c1cc2cnc(Nc3ccc(N4CCN(CC#N)CC4)nn3)nc2c(NC(C)C)n1 [Compound 906] | 10 to 100 | ≥ 100 |  | 
CC(O)c1cc2cnc(Nc3ccc(N4CCNCC4)cn3)nc2c(NCC(F)F)n1 (centres unmarked) [Compound 36] |  |  | ≥ 100 | ≥ 100
CC(C)Nc1nc([C@@H](C)O)cc2cnc(Nc3ccc(N4CCN(CC(=O)N(C)C)CC4)nn3)nc12 [Compound 991] | < 10 | ≥ 100 |  | 
C[C@@H](O)c1cc2cnc(Nc3ccc(CN4CCCC(O)C4)cn3)nc2c(NCC2CC2)n1 (some centres unmarked) [Compound 1083] | < 10 | ≥ 100 |  | 
CC(C)Nc1nc([C@@H](C)O)cc2cnc(Nc3ccc(N4CCCC(N)C4=O)cn3)nc12 (some centres unmarked) [Compound 593] |  |  | < 10 | ≥ 100
CCCCNc1nc([C@@H](C)O)cc2cnc(Nc3ccc(CN4CCC[C@H](O)C4)cn3)nc12 [Compound 1188] | < 10 | ≥ 100 |  | 
C[C@@H](O)c1cc2cnc(Nc3ccc(CN4CCC(CO)CC4)cn3)nc2c(N[C@H]2CCCOC2)n1 [Compound 1156] | < 10 | ≥ 100 |  | 
CC(C)Nc1nc([C@@H](C)O)cc2cnc(Nc3ccc(C4CNCCO4)nn3)nc12 (some centres unmarked) [Compound 706] | < 10 | ≥ 100 |  | 
CO[C@H](C)c1cc2cnc(Nc3ncc(N4CCNCC4=O)cc3F)nc2c(NC(C)C)n1 [Compound 715] | 10 to 100 | ≥ 100 |  | 
CC(C)Nc1nc(C(F)F)cc2cnc(Nc3ccc(CNS(N)(=O)=O)cn3)nc12 [Compound 187] |  |  | 10 to 100 | ≥ 100
CC(C)Nc1nc([C@@H](C)O)cc2cnc(Nc3ccc(N4CCNC5(CC5)C4=O)cn3)nc12 [Compound 733] | 10 to 100 | ≥ 100 |  | 
COCC(C)(C)Nc1nc([C@@H](C)O)cc2cnc(Nc3ccc(N4CCOCC4)cn3)nc12 [Compound 204] |  |  | < 10 | ≥ 100
CC(C)Nc1nc([C@@H](C)O)cc2cnc(Nc3ccc(N4CCN(C)CC4)nn3)nc12 [Compound 532] |  |  | < 10 | ≥ 100
CC(C)Nc1nc([C@@H](C)O)cc2cnc(Nc3ccc(N4CCN(C[C@@H](C)O)CC4)nn3)nc12 [Compound 677] | < 10 | ≥ 100 |  | 
CC(C)Nc1nc([C@@H](C)O)cc2cnc(Nc3ccc(N4C[C@H]5CCN[C@H]5C4=O)cn3)nc12 [Compound 558] |  |  | < 10 | 10 to 100
CC(C)Nc1nc([C@@H](C)O)cc2cnc(Nc3ccc(N4CC(CO)C4)nn3)nc12 [Compound 667] | < 10 | ≥ 100 |  | 
CC(C)Nc1nc([C@@H](C)O)cc2cnc(Nc3ccc(CC4CCNCC4)cn3)nc12 [Compound 950] | < 10 | ≥ 100 |  | 
